These results are taken from patent US20230399378A1, “PEPTIDE-BASED DELIVERY OF AGENTS” (THE FLOREY INSTITUTE OF NEUROSCIENCE AND MENTAL HEALTH, priority 2020, published 2023).

Square brackets hold non-standard residues; d marks the D form. Side chains are listed from the residue outwards. Peptide text beside a SMILES is read from it. PMO = not defined here; AEEA = NCCOCCOCC(=O)O; Ahx = NCCCCCC(=O)O; Mpa = O=C(O)CCS

Series [1] can be described thus: Serum stability in 50% human serum at 37 °C (RP-HPLC, one-phase decay half-life). The following applies: human, serum (50% human serum).
Procedure: Serum stability analysis was conducted for each peptide (7×50 nmol) shown in Table 3 in 50% human serum (100 μL) at 37° C. At the end of each time point (0, 10, 30, 60, 120, 240, and 480 min), 1 M guanidine hydrochloride solution (200 μL) and ice-cold acetonitrile (600 μL) were added, and the serum-peptide solution was centrifuged at 14000 g for 10 min. The supernatant was lyophilised and redissolved in water (200 μL). All samples were analysed by RP-HPLC in the presence of phenol (50 nmol) as an internal standard, using water and acetonitrile containing 0.1% TFA, with a gradient of 10-80% acetonitrile over 30 min, and a flow rate of 1.5 mL/min. The percentage of peptide remaining was measured based on the area under curve. The percentage of peptide remaining versus time data was fitted to a non-linear one-phase exponential decay model in GraphPad Prism 9.2.0 to determine the half-life for each peptide.
In the next series the test system is SMN2. Put plainly: SMN2 splice-switching for exon 7 inclusion by RT-qPCR in SMA Type I patient-derived fibroblasts (Example 2). It counts as cell-based, human. The following applies: for exon-7 inclusion activity, change in words: 0.5 μM and 1 μM, versus comparator; for level of exon-7 inclusion activity (full length SMN2/HPRT1, normalised to untreated control set to 1): treated 4 hrs, then 20 hrs growth medium, mean±SEM. The source says: FIG. 3. (A) SMN2 pre-mRNA exon-7 skipping and production of 80-90% SMN2Δ7 mRNA transcripts. Peptide-PMO binding to Intron-splicing silencer (ISS-N1) and restoration of SMN2 splicing and production of full-length SMN2 mRNA transcripts. The positions of forward and reverse primers highlighted on full-length mRNA. (B)-(C) Effect of administration of peptides linked to PMO for SMN2 exon 7 inclusion, measured as change in the level of full length SMN2/HPRT1 in SMA patient-derived fibroblasts, each at two concentrations, 0.5 μM and 1 μM (or 1 μM and 5 μM in the case of PMO alone). UT, untreated. (B) For PMO constructs, from left to right: PMO; ApoE(141-150)-PMO; ApoE(133-150)-PMO. (C) For PMO constructs, from left to right: PMO; HA2-PMO; GALA-PMO; NLS-PMO; ApoE(141-150)-PMO; HA2-ApoE(141-150)-PMO; GALA-ApoE(141-150)-PMO; NLS-ApoE(141-150)-PMO; H4-ApoE(141-150)-PMO; A4-ApoE(141-150)-PMO. *P<0.05,**P<0.001, ***P<0.0001 cf. Untreated (control) and PMO (1 and 5 μM); #P<0.001 cf. GALA-/NLS-/H4-ApoE(141-150)-PMO (1 μM), ^<0.001 cf. ApoE(133-150)-PMO (0.5 and 1 μM), ^OP<0.001 cf. ApoE(141-150)-PMO (1 μM), ^&P<0.05 cf.
The inventors then evaluated cellular uptake and activity of these peptide-PMO conjugates in SMA Type I patient-derived fibroblasts with two copies of SMN2. Efficiency of uptake was assessed by RT-qPCR using SMN2 splice-switching for exon 7 inclusion (see FIG. 3A).
SMA Type I patient-derived fibroblasts (SMN2^+/+, GM03813, Coriell Cell Repositories) were maintained in Dulbecco's Modified Eagle's Medium (DMEM), supplemented with 10% foetal bovine serum (FBS), 1% Penicillin/Streptomycin and 1% L-glutamine (L-glu) at 37° C. Cells were plated in 6-well plates at a density of 3×10^5/well in 6 well plates one day prior to treatment with PMO and peptide-PMO conjugates. Cells used were from passage 8-22. PMO and the peptide-PMO conjugates were dissolved in nuclease-free water and diluted to appropriate concentrations in Opti-MEM reduced serum medium. Cells were treated for 4 hrs at 37° C. The transfection medium was then removed and replaced with growth medium in which the cells were incubated for 20 hrs.
Cells were washed with PBS and total cellular RNA was extracted using Trizol (TRI Reagent®, Sigma) according to the manufacturer's instructions (Life Technologies). 400 ng purified RNA was reverse transcribed into cDNA using BioRad iScript Reverse Transcription Supermix kit according to the manufacturer's instructions. The reverse transcription was performed using the Veriti Thermal Cycler (ThermoFisher Scientific) with the thermal cycling conditions: 25° C. for 5 min, 46° C. for 20 min, 95° C. for 1 min followed by a 4° C. holding period.
Quantitative PCR (20 ng cDNA/well) was carried out in a 96-well plate in triplicate using SsoAdvanced Universal SYBR Green Supermix on a Biorad CFX96 Touch™ Real-Time PCR detection system. The amplification was carried out using full-length SMN2-specific primers: Ex-6 Forward 5′-[…]-3′ (SEQ ID NO:10) and Ex7-8 reverse 5′[…]-3′ (SEQ ID NO:11). Human HPRT1 was used as the internal reference gene with forward primer sequence 5′-[…]-3′ (SEQ ID NO:12) and reverse primer sequence 5′-[…]-3′ (SEQ ID NO:13). The ΔΔCt method was used to correct the Ct values against the HPRT1 Ct values. The values obtained were normalised to the untreated control values which were set to 1. Statistical analysis was carried out using one-way ANOVA with post-hoc Bonferroni for multiple groups comparison (GraphPad Prism V.8, 2018). All data are expressed as mean±SEM from at least three independent experiments with p<0.05 considered significant.
Background: Quantitative PCR measures a nucleic acid by following its amplification.

The half-life is the time in which the quantity being followed falls by half. Higher therefore signals slow decline.

On to `CC[C@H](C)[C@H](NC(=O)[C@H](C)NC(=O)[C@H](Cc1c[nH]cn1)NC(=O)[C@H](Cc1ccccc1)NC(=O)[C@H](CC(C)C)NC(=O)CNC(C)=O)C(=O)N[C@@H](C)C(=O)N[C@@H](Cc1c[nH]cn1)C(=O)N[C@@H](Cc1ccccc1)C(=O)N[C@H](C(=O)N[C@@H](Cc1c[nH]cn1)C(=O)NCC(=O)NCC(=O)N[C@@H](Cc1c[nH]c2ccccc12)C(=O)N[C@@H](Cc1c[nH]cn1)C(=O)NCCOCCOCC(=O)N[C@@H](CCCCNC(=O)COCCOCCNC(=O)CCS)C(=O)NCCOCCOCC(=O)N[C@@H](CC(C)C)C(=O)N[C@@H](CCCNC(=N)N)C(=O)N[C@H](C(=O)N[C@@H](CCCNC(=N)N)C(=O)N[C@@H](CC(C)C)C(=O)N[C@@H](C)C(=O)N[C@@H](CO)C(=O)N[C@@H](Cc1c[nH]cn1)C(=O)N[C@@H](CC(C)C)C(=O)N[C@@H](CCCNC(=N)N)C(=O)N[C@@H](CCCCN)C(=O)N[C@@H](CC(C)C)C(=O)N[C@@H](CCCNC(=N)N)C(=O)N[C@@H](CCCCN)C(=O)N[C@@H](CCCNC(=N)N)C(=O)N[C@@H](CC(C)C)C(=O)N[C@@H](CC(C)C)C(=O)N[C@@H](CCCNC(=N)N)C(=O)O)C(C)C)[C@@H](C)CC` [Br-HA2-(TPA)-ApoE(133-150), Ac-GLFHAIAHFIHGGWH-mPEG-K(mPEG-TPA)-mPEG-LRVRLASHLRKLRKRLLR] (Ac-GLFHAIAHFIHGGWH[AEEA]K([AEEA-Mpa])[AEEA]LRVRLASHLRKLRKRLLR-OH), for which the half-life at 500 µM in series [1] is 60 min.

`CC[C@H](C)[C@H](NC(=O)[C@H](C)NC(=O)[C@H](Cc1c[nH]cn1)NC(=O)[C@H](Cc1ccccc1)NC(=O)[C@H](CC(C)C)NC(=O)CNC(C)=O)C(=O)N[C@@H](C)C(=O)N[C@@H](Cc1c[nH]cn1)C(=O)N[C@@H](Cc1ccccc1)C(=O)N[C@H](C(=O)N[C@@H](Cc1c[nH]cn1)C(=O)NCC(=O)NCC(=O)N[C@@H](Cc1c[nH]c2ccccc12)C(=O)N[C@@H](Cc1c[nH]cn1)C(=O)NCCOCCOCC(=O)N[C@@H](CCCCNC(=O)COCCOCCNC(=O)CCS)C(=O)NCCOCCOCC(=O)N[C@@H](CC(C)C)C(=O)N[C@@H](CCCNC(=N)N)C(=O)N[C@@H](CCCCN)C(=O)N[C@@H](CC(C)C)C(=O)N[C@@H](CCCNC(=N)N)C(=O)N[C@@H](CCCCN)C(=O)N[C@@H](CCCNC(=N)N)C(=O)N[C@@H](CC(C)C)C(=O)N[C@@H](CC(C)C)C(=O)N[C@@H](CCCNC(=N)N)C(=O)O)[C@@H](C)CC` [Br-HA2-(TPA)-ApoE(141-150), Ac-GLFHAIAHFIHGGWH-mPEG-K(mPEG-TPA)-mPEG-LRKLRKRLLR] (Ac-GLFHAIAHFIHGGWH[AEEA]K([AEEA-Mpa])[AEEA]LRKLRKRLLR-OH) gave a half-life at 500 µM in series [1] of 36 min.

Turning to “Ac-AAAA-X-LRKLRKRLLR-X-C-PMO [A4-ApoE(141-150)-PMO]”, in the series with SMN2, the “exon-7 inclusion activity, change in words” value was “significant decrease”.

Regarding “Ac-HHHH-X-LRKLRKRLLR-X-C-PMO [H4-ApoE(141-150)-PMO]”, the “level of exon-7 inclusion activity (full length SMN2/HPRT1, normalised to untreated control set to 1)” value in the series with SMN2 (0.5 μM) is 1.81±0.02; in the series with SMN2 (1 μM), 2.0±0.05.

“Ac-VQRKRQKLMP-X-LRKLRKRLLR-X-C-PMO [NLS-ApoE(141-150)-PMO]”: the “exon-7 inclusion activity, change in words” value with SMN2 was “significant increase in the activity”.

Take “Ac-WEAALAEALAEALAEHLAEALAEALEALAA-X-C-PMO (Ac-WEAALAEALAEALAEHLAEALAEALEALAA[Ahx]C-{PMO}; reading uncertain; also: printed as Ac-WEAALAEALAEALAEHLAEALAEALEALAA-X-C-PMO) [GALA-PMO]”: the “exon-7 inclusion activity, change in words” value in the series with SMN2 is “no significant increase”.

“Ac-WEAALAEALAEALAEHLAEALAEALEALAA-X-LRKLRKRLLR-X-C-PMO [GALA-ApoE(141-150)-PMO]”: the “exon-7 inclusion activity, change in words” value in the series on SMN2 was “significant increase in the activity”. Besides, the “level of exon-7 inclusion activity (full length SMN2/HPRT1, normalised to untreated control set to 1)” value is given as 1.41±0.04 with SMN2 (0.5 μM) and 2.14±0.14 in the series with SMN2 (1 μM).

With “Myr-LRKLRKRLLR-X-C-PMO [Myr-ApoE(141-150)-PMO]”, in the series with SMN2 (concentration not given, compared to acetylated counterpart), the “exon-7 inclusion activity (full length SMN2/HPRT1, normalised to untreated control set to 1)” value was determined as 1.91±0.03.
